What was measured:
Format in all cases: in vivo
db/db mice = assay: Blood glucose and insulin in mouse model of type II diabetes (Example 4); settings: single administration 0.2 g/kg per day by gavage, two weeks
Excerpt: Effects of a Limonoid Compound, Metformin or a Combination Thereof on Blood Glucose and Insulin in a Mouse Model of Type II Diabetes
In the present embodiment, the limonoid compound selected nomilin, deacetylnomilin, nomilin acid, deactylnomilin 17-β-D-glucopyranoside, and a nomilin single administration group, deacetylnomilin single administration group, nomilin acid single administered group, deactylnomilin 17-β-D-glucopyranoside single administration group, and combination thereof with metformin administration groups were set, respectively.
(§1) Conditions for experimental feeding: as type II diabetes model mice, 6-week-old SPF-grade db/db mice were purchased from the Nanjing Model Biology Institute, and subjected to experimental feeding after 7 days of preliminary feeding. It should be noted that the conditions for raising the mice were as follows: the temperature was 23±1° C., the humidity was 55±10%, the lights were turned on between 7 am and 7 pm (the lights were turned off at other time), and the mice were allowed to access to water and feed freely. The experimental feed was mouse growth-stable feed (GB M2118), and the daily feeding and management of the animals were under the responsibility of the animal security department, which provided the animals with sufficient padding and fresh drinking water daily.
Experimental grouping: male db/db mice (20±2 g) were selected, 18 male mice in each group were tested, and drinking bottles were sterilized weekly. The experimental groups included the normal control group (db/m, n=18), the model group (db/db, n=18), the nomilin group (db/db, n=18), the deacetylnomilin group (db/db, n=18), the nomilin acid group (db/db, n=18), the deactylnomilin 17-β-D-glucopyranoside group (db/db, n=18), the metformin group (db/db, n=18), the nomilin/metformin combination group (db/db, n=18), the deacetylnomilin/metformin combination group (db/db, n=18), the nomilin acid/metformin combination group (db/db, n=18), the deactylnomilin 17-β-D-glucopyranoside/combination group (db/db, n=18).
Gavage doses: nomilin at a dose of 0.2 g/kg was gavaged per day for the nomilin group, deacetylnomilin at a dose of 0.2 g/kg was gavaged per day for the deacetylnomilin group, nomilin acid at a dose of 0.2 g/kg was gavaged per day for the nomilin acid group, deacetylnomilin […] at a dose of 0.2 g/kg was gavaged per day for the deactylnomilin glucopyranoside group, metformin at a dose of 0.2 g/kg was gavaged per day for the metformin group, nomilin at a dose of 0.1 g/kg and metformin at a dose of 0.1 g/kg were simultaneously gavaged per day for the nomilin/metformin combination group, nomilin acid at a dose of 0.1 g/kg and metformin at a dose of 0.1 g/kg were simultaneously gavaged per day for the nomilin acid/metformin combination group, deacetylnomilin at a dose of 0.1 g/kg and metformin at a dose of 0.1 g/kg were simultaneously gavaged per day for the deacetylnomilin/metformin combination group, deactylnomilin 17-β-D-glucopyranoside at a dose of 0.1 g/kg and metformin at a dose of 0.1 g/kg were simultaneously gavaged per day for the deactylnomilin 17-β-D-glucopyranoside/metformin combination group, the gavage volume was 10 mL/kg, and the normal group and the model group were administrated with 10 mL/kg of distilled water. Two weeks later, the blood glucose values were measured by tail trimming method (Johnson's blood glucose meter) 1 h after the last administration, and serum insulin levels were measured with blood collected from orbital cavity by enzyme-linked immunosorbent assay (Elisa), and the average of each group was obtained. SPSS 16.0 software was used for statistical analysis. The data were expressed as mean and standard deviation. The data before and after were analyzed by t-test, and P<0.05 was considered statistically significant.

STZ mice [1] = assay: Blood glucose in mouse model of type II diabetes with pancreatic islet damage and obesity (Example 5); settings: high-fat diet + STZ ICR mice; single administration 0.5 g/kg per day by gavage, three weeks
Method: as §1, with “It” for “Conditions for experimental feeding: as type II diabetes model mice, 6-week-old SPF-grade db/db mice were purchased from the Nanjing Model Biology Institute, and subjected to experimental feeding after 7 days of preliminary feeding. It”
SPSS 16.0 software was used for statistical analysis.

STZ mice [2] = assay: Blood glucose in mouse pancreatic islet β-cell injury model (Example 1); settings: STZ ICR mice; single administration 0.02 g/kg per day by gavage, two weeks; 1 h after last administration
Excerpt: Effects of a Limonoid Compound, Metformin or a Combination Thereof on Blood Glucose in a Mouse Pancreatic Islet β-Cell Injury Model In this example, a mouse pancreatic islet β-cell injury model was established by modeling ICR mice with streptozotocin (STZ) (referred to the prior art literature: Li Nan et al., Protective effect of pine pollen on kidney damage in diabetic nephropathy mice, Science and Technology Review, 2014, 32 (4/5): 95-99), and used to complete the evaluation of hypoglycemic effect in animals (this model could simulate pancreatic islet β-cell damage state of type I and type II diabetics). […] Conditions of experimental feeding: ICR mice (20±2 g), aged 6 weeks, purchased from Zhejiang Academy of Medical Sciences, and subjected to experimental feeding after 7 days of preliminary feeding. […] The experimental feed was mouse growth-stable feed (GB […]), and the daily feeding and management of the animals were under the responsibility of the animal security department, which provided the animals with sufficient padding and fresh drinking water daily. Experimental grouping: 15 male mice were randomly selected as the normal control group. […] Gavage doses: the gavage dose was 0.02 g/kg per day for the limonin group, the gavage dose was 0.02 g/kg per day for the isolimonic acid group, the gavage dose was 0.02 g/kg per day for the limonin 17-β-D-glucopyranoside group, the gavage dose of metformin was 0.02 g/kg per day for the metformin group, limonin at a dose of 0.01 g/kg and metformin at a dose of 0.01 g/kg were simultaneously gavaged per day for the limonin/metformin combination group, isolimonic acid at a dose of 0.01 g/kg and metformin at a dose of 0.01 g/kg were simultaneously gavaged per day for the isolimonic acid/metformin combination group, limonin 17-β-D-glucopyranoside at a dose of 0.01 g/kg and metformin at a dose of 0.01 g/kg were simultaneously gavaged per day for the limonin 17-β-D-glucopyranoside/metformin combination group, isolimonic acid 17-β-D-glucopyranoside at a dose of 0.01 g/kg and metformin at a dose of 0.01 g/kg were simultaneously gavaged per day for the isolimonic acid 17-β-D-glucopyranoside/metformin combination group, the gavage volume was 10 mL/kg, and the normal group and the model group were administrated with 10 mL/kg of distilled water. […] SPSS 16.0 software was used for statistical analysis. The data were expressed as mean and standard deviation. The data before and after were analyzed by t-test, and P<0.05 was considered statistically significant.

CN(C)C(=N)NC(=N)N [Metformin, N,N-dimethylimidodicarbonimidic diamide, reference compound]
Insulin (db/db mice; serum, Elisa): 8.19 ± 2.10 pg/mL | Blood glucose value (db/db mice; 1 h after last administration): 12.2 ± 3.6 mmol/L | Blood glucose value (STZ mice [1]): 17.9 ± 3.6 mmol/L | Blood glucose value (STZ mice [2]): 22.6 ± 3.9 mmol/L
